# Laboratory results reported in US9359352B2, “Substituted benzimidazoles as PI3 kinase inhibitors” (Intellikine LLC, priority 2010, dated 2016).
# Key:
# Assay type in all cases: biochemical
# PI3K β = target: T1, PI3K β (Homo sapiens, UniProt P42338); assay: PI 3-Kinase HTRF inhibition assay, PI3K β; settings: in vitro
# T1 construct: purchased Upstate
# Description: (§1) Commercial kits or systems for assaying PI3-K activities are available. The commercially available kits or systems can be used to screen for inhibitors and/or agonists of PI3-Ks including but not limited to PI 3-Kinase α, β, δ, and γ. An exemplary system is PI 3-Kinase (human) HTRF™ Assay from Upstate. […] Briefly, the assay is a time resolved FRET assay that indirectly measures PIP3 product formed by the activity of a PI3-K. The kinase reaction is performed in a microtitre plate (e.g., a 384 well microtitre plate). The total reaction volume is approximately 20 ul per well. In the first step, each well receives 2 ul of test compound in 20% dimethylsulphoxide resulting in a 2% DMSO final concentration. Next, approximately 14.5 ul of a kinase/PIP2 mixture (diluted in 1× reaction buffer) is added per well for a final concentration of 0.25-0.3 ug/ml kinase and 10 μM PIP2. The plate is scaled and incubated for 15 minutes at room temperature. To start the reaction, 3.5 ul of ATP (diluted in 1× reaction buffer) is added per well for a final concentration of 10 μM ATP. The plate is sealed and incubated for 1 hour at room temperature. The reaction is stopped by adding 5 ul of Stop Solution per well and then 5 ul of Detection Mix is added per well. The plate is sealed, incubated for 1 hour at room temperature, and then read on an appropriate plate reader. Data is analyzed and IC50s are generated using GraphPad Prism 5. For PI3K α, β, δ, and γ, the nM concentration of inhibitor to reach IC50 is provided. […] Similar assays, and others known in the art, can be used to measure the percent inhibition of other kinases, including but not limited to PI3K class II kinases, phosphoinositide 4 kinases (PI4K), and phosphoinositide 5 kinases (PI5K).
# PI3K γ = target: T2, PI3K γ (Homo sapiens, UniProt P48736); assay: PI 3-Kinase HTRF inhibition assay, PI3K γ; settings: in vitro
# T2 construct: purchased Upstate
# T2 sequence (P48736 whole entry): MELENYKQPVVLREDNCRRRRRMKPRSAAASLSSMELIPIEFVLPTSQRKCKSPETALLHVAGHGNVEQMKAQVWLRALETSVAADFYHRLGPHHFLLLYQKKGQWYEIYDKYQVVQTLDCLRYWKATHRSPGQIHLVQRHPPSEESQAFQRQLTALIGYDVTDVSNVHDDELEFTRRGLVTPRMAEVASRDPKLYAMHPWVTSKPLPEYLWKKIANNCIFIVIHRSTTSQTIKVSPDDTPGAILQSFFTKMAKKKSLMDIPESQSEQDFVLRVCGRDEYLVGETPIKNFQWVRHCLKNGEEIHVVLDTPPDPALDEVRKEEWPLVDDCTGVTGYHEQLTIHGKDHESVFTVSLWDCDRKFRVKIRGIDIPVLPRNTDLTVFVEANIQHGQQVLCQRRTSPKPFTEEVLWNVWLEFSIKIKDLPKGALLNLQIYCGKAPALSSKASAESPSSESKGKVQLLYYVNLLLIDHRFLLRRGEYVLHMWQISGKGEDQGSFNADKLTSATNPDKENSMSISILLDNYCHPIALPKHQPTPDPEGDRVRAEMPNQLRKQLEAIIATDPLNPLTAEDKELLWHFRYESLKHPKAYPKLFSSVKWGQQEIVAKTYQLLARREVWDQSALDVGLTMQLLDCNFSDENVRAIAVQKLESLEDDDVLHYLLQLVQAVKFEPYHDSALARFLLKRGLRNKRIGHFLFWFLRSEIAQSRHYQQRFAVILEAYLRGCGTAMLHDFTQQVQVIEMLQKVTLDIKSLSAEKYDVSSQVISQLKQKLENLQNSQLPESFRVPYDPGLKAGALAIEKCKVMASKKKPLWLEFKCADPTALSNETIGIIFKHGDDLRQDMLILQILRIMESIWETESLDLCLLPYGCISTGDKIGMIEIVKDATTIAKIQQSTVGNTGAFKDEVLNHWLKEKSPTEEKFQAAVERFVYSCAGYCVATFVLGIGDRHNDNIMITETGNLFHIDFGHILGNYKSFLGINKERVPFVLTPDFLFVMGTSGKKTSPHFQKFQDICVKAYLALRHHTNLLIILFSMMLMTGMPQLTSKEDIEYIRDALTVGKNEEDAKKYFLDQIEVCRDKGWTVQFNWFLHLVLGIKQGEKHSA
# PI3K α = target: T3, PI3K α (Homo sapiens, UniProt P42336); assay: PI 3-Kinase HTRF inhibition assay, PI3K α; settings: in vitro; read-out: PI3K α IC50
# T3 construct: purchased Upstate
# T3 sequence (P42336 whole entry): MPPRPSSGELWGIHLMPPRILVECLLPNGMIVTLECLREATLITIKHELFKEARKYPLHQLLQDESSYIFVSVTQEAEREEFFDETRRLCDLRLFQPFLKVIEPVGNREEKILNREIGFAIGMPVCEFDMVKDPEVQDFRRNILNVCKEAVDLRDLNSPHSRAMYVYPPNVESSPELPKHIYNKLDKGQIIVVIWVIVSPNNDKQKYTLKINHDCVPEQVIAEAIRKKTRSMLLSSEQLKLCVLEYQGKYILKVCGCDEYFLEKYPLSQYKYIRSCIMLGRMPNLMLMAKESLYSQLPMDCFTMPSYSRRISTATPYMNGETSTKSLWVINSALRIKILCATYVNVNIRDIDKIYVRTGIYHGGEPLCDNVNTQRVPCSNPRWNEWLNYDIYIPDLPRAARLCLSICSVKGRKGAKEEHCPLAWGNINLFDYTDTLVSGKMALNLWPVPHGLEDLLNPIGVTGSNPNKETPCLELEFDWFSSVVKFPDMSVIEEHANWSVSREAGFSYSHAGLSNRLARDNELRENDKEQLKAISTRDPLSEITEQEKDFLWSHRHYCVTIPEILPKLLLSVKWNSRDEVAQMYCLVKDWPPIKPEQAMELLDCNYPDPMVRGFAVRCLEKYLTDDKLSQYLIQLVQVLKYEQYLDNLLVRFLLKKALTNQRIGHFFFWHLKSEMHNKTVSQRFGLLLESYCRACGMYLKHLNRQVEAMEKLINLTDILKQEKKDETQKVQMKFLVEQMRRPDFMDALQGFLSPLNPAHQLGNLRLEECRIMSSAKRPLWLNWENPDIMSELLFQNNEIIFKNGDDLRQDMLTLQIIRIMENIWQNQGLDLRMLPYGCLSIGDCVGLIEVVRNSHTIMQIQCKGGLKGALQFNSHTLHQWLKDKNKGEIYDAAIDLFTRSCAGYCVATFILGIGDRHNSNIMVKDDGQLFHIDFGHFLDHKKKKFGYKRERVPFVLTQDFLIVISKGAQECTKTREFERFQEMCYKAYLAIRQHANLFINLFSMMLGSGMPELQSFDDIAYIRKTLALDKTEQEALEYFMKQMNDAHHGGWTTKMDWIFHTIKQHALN
# T3 sequence (P27986 whole entry partner): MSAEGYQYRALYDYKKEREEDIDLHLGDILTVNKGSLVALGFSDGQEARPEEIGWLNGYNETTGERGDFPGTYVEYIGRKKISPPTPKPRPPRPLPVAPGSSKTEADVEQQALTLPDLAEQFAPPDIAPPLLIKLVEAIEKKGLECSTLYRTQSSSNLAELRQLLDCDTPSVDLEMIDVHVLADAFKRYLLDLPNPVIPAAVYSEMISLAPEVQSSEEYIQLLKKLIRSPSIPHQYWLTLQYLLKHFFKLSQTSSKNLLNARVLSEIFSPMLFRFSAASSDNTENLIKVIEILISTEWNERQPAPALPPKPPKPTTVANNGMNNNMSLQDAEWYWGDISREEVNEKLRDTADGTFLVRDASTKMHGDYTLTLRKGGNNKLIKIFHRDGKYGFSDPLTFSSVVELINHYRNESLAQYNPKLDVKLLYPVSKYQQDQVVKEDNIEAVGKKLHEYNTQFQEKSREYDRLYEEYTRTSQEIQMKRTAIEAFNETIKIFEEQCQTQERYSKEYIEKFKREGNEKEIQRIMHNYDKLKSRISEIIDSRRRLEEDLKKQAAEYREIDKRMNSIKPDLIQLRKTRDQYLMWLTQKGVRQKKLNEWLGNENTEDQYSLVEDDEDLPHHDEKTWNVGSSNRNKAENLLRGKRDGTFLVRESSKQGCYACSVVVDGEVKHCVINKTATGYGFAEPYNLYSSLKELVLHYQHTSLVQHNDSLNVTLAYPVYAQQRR
# Description: as §1
# PI3K δ = target: T4, PI3K δ (Homo sapiens, UniProt O00329); assay: PI 3-Kinase HTRF inhibition assay, PI3K δ; settings: in vitro; read-out: PI3K δ IC50
# T4 construct: purchased Upstate
# T4 sequence (O00329 whole entry): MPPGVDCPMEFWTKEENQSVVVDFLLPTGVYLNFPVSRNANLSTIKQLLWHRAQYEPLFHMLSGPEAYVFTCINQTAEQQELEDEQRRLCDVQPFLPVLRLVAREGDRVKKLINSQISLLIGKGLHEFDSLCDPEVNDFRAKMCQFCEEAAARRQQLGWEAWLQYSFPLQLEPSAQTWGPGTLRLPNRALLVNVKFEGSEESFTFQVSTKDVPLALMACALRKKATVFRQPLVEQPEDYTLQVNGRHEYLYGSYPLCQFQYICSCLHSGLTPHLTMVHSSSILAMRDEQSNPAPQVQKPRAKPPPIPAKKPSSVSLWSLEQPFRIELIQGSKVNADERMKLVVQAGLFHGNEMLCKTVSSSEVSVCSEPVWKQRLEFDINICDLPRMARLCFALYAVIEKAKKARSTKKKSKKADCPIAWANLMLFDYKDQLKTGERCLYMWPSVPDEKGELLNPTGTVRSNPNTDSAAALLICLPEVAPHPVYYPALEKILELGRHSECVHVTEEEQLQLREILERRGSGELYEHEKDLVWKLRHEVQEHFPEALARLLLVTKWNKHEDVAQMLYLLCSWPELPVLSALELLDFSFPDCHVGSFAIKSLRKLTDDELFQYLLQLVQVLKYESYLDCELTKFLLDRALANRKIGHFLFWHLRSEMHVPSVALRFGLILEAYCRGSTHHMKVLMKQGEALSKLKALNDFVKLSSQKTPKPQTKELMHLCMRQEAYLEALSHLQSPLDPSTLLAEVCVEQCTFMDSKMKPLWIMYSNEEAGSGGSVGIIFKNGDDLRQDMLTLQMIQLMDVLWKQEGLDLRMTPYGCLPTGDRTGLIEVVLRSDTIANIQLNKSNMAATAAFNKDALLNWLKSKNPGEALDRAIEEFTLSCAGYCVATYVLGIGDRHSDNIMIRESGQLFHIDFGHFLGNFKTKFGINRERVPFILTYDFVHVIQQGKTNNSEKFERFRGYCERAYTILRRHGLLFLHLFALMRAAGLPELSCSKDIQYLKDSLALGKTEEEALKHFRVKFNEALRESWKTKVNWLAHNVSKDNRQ
# T4 sequence (P27986 whole entry partner): as the sequence (P27986 whole entry partner) above
# Description: as §1
# T1 sequence (P42338 whole entry): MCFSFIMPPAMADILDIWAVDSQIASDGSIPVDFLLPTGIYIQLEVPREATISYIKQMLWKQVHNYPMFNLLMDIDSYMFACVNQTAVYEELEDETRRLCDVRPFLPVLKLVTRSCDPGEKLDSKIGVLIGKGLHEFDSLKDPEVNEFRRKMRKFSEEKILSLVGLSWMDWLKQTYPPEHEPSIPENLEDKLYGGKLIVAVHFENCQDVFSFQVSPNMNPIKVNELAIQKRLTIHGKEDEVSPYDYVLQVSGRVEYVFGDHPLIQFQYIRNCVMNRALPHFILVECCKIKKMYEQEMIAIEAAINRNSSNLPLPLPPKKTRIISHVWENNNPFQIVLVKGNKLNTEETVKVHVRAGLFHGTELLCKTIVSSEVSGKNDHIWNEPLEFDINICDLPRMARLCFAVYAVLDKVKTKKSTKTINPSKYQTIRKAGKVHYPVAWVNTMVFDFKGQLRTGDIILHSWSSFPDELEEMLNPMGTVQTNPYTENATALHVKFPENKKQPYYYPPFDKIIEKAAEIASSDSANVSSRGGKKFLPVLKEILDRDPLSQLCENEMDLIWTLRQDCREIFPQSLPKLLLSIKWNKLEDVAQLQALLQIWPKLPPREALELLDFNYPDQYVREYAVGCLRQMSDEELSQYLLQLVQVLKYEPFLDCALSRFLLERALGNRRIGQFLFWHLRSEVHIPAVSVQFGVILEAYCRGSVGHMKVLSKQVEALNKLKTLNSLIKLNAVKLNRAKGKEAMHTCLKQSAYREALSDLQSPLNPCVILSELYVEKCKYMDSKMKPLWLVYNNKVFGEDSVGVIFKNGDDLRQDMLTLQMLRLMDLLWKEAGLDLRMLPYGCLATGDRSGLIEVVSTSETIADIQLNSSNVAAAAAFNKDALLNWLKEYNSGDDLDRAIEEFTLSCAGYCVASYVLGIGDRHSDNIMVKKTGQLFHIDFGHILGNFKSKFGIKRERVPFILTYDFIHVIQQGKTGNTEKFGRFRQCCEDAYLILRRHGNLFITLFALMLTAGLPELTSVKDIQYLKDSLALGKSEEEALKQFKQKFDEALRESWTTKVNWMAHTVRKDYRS
# T1 sequence (P27986 whole entry partner): as the sequence (P27986 whole entry partner) above
IC50 (PI3K β),IC50 (PI3K γ),IC50 (PI3K α),IC50 (PI3K δ),SMILES
> 10 µM,< 10000 nM,< 100 nM,< 10 µM,C[C@@H]1CN(C2CN(c3cnc4ccc(-c5ccc6oc(N)nc6c5)nc4n3)C2)CCN1C [Compound 25]
> 10 µM,< 1000 nM,< 100 nM,< 10 µM,CS(=O)(=O)N1CCN(C2CN(c3cnc4ccc(-c5ccc6oc(N)nc6c5)nc4n3)C2)CC1 [Compound 8]
< 10 µM,< 1000 nM,< 1000 nM,> 10 µM,Nc1nc2cc(-c3ccc4ncc(-c5cccnc5)nc4n3)ccc2o1 [Compound 3]
< 10 µM,< 100 nM,< 100 nM,> 10 µM,C[C@H]1COCCN1c1cnc2ccc(-c3ccc4oc(N)nc4c3)nc2n1 [Compound 15]
–,< 100 nM,< 100 nM,–,Nc1nc2cc(-c3ccc4ncc(N5CCN(C(=O)C6(N)CC6)CC5)nc4n3)ccc2o1 [Compound 41]
> 10 µM,< 10000 nM,< 100 nM,< 10 µM,C[C@H]1COCCN1C1CN(c2cnc3ccc(-c4ccc5oc(N)nc5c4)nc3n2)C1 [Compound 61]
> 10 µM,> 10000 nM,> 10000 nM,> 10 µM,Nc1nc2cc(-c3ccc4nc(N5CCOCC5)cnc4n3)ccc2o1 [Compound 7]
> 10 µM,> 10000 nM,< 100 nM,> 10 µM,CCN1CCN(C2CN(c3cnc4ccc(-c5ccc6nc(N)[nH]c6c5)nc4c3)C2)CC1 [Compound 87]
< 10 µM,< 100 nM,< 100 nM,< 10 µM,Nc1nc2cc(-c3ccc4ncc(-c5cccnc5)cc4n3)ccc2o1 [Compound 16]
< 1 µM,< 10000 nM,< 1000 nM,< 10 µM,CN1CCN(c2cnc3ccc(-c4ccc5oc(N)nc5c4)nc3n2)CC1 [Compound 4]
< 10 µM,< 1000 nM,< 100 nM,< 1 µM,CC1(C)CN(C2CN(c3cnc4ccc(-c5ccc6oc(N)nc6c5)nc4c3)C2)CCN1 [Compound 58]
< 1 µM,< 1000 nM,< 100 nM,< 10 µM,CC(C)N1CCN(c2cnc3ccc(-c4ccc5oc(N)nc5c4)nc3n2)CC1 [Compound 32]
< 0.1 µM,< 10000 nM,< 1000 nM,< 10 µM,C[C@H]1CN(c2cnc3ccc(-c4ccc5oc(N)nc5c4)nc3n2)CCN1 [Compound 1]
> 10 µM,> 10000 nM,< 100 nM,> 10 µM,C[C@@H]1CN(C2CN(c3cnc4ccc(-c5ccc6nc(N)[nH]c6c5)nc4c3)C2)CCN1C [Compound 86]
< 0.1 µM,< 1000 nM,< 100 nM,< 10 µM,C[C@@H]1CN(c2cnc3ccc(-c4ccc5oc(N)nc5c4)nc3n2)CCN1 [Compound 27]
< 0.1 µM,< 1000 nM,< 100 nM,< 1 µM,C[C@@H](N)C(=O)N1CCN(c2cnc3ccc(-c4ccc5oc(N)nc5c4)nc3c2)CC1 [Compound 39]
< 1 µM,< 100 nM,< 100 nM,< 1 µM,Nc1nc2cc(-c3ccc4ncc(N5CCN(C(=O)C6(N)CC6)CC5)cc4n3)ccc2o1 [Compound 42]
< 10 µM,< 100 nM,< 100 nM,> 10 µM,CCOC(=O)N1CCN(c2cnc3ccc(-c4ccc5oc(N)nc5c4)nc3c2)CC1 [Compound 36]
< 10 µM,> 10000 nM,< 100 nM,< 1 µM,CN1CCN(C2CN(c3cnc4ccc(-c5ccc6oc(N)nc6c5)nc4n3)C2)CC1 [Compound 71]
> 10 µM,> 10000 nM,< 10000 nM,> 10 µM,CN1CCN(C2CN(c3ccc4ncc(-c5ccc6oc(N)nc6c5)cc4n3)C2)CC1 [Compound 84]
< 10 µM,< 10000 nM,< 100 nM,< 1 µM,Nc1nc2cc(-c3ccc4ncc(N5CC(N6CCN(CC7CC7)CC6)C5)cc4n3)ccc2o1 [Compound 60]

IC50 (PI3K β),IC50 (PI3K γ),IC50 (PI3K α),IC50 (PI3K δ),SMILES
< 10 µM,< 100 nM,< 100 nM,< 1 µM,Cc1nccn1C1CN(c2cnc3ccc(-c4ccc5oc(N)nc5c4)nc3c2)C1 [Compound 63]
< 1 µM,< 1000 nM,< 100 nM,< 1 µM,CC(C)N1CCN(c2cnc3ccc(-c4ccc5oc(N)nc5c4)nc3c2)CC1 [Compound 44]
< 10 µM,> 10000 nM,< 10000 nM,> 10 µM,CN1CCN(c2ccc3ncc(-c4ccc5oc(N)nc5c4)cc3n2)CC1 [Compound 80]
< 10 µM,< 10000 nM,< 100 nM,< 10 µM,NCC(=O)N1CCN(c2cnc3ccc(-c4ccc5oc(N)nc5c4)nc3n2)CC1 [Compound 33]
< 10 µM,< 100 nM,< 100 nM,> 10 µM,Nc1nc2cc(-c3ccc4ncc(N5CCC(O)CC5)nc4n3)ccc2o1 [Compound 45]
< 10 µM,< 1000 nM,< 100 nM,< 10 µM,Nc1nc2cc(-c3ccc4ncc(N5CC(N6CCN(C7CC7)CC6)C5)cc4n3)ccc2o1 [Compound 70]
< 10 µM,< 10000 nM,< 100 nM,< 10 µM,Nc1nc2cc(-c3ccc4ncc(N5CC(N6CCN(CC7CC7)CC6)C5)nc4n3)ccc2o1 [Compound 35]
> 10 µM,< 1000 nM,< 1000 nM,< 10 µM,CCN(CC)c1cnc2ccc(-c3ccc4oc(N)nc4c3)nc2n1 [Compound 26]
< 1 µM,< 10000 nM,< 100 nM,< 10 µM,C[C@@H]1CN(c2cnc3ccc(-c4ccc5oc(N)nc5c4)nc3c2)CCN1 [Compound 48]
< 1 µM,< 1000 nM,< 100 nM,< 1 µM,CN1CCN(C2CN(c3cnc4ccc(-c5ccc6oc(N)nc6c5)nc4c3)C2)CC1 [Compound 74]
> 10 µM,< 10000 nM,< 100 nM,< 10 µM,Nc1nc2cc(-c3ccc4ncc(N5CC(N6CCOCC6)C5)nc4n3)ccc2o1 [Compound 5]
< 10 µM,< 100 nM,< 100 nM,< 10 µM,C[C@@H]1COCCN1c1cnc2ccc(-c3ccc4oc(N)nc4c3)nc2n1 [Compound 14]
< 10 µM,< 1000 nM,< 100 nM,< 10 µM,Nc1nc2cc(-c3ccc4ncc(N5CC(N6CCOCC6)C5)cc4n3)ccc2o1 [Compound 53]
< 10 µM,< 10000 nM,< 100 nM,< 1 µM,CC1(C)CN(C2CN(c3cnc4ccc(-c5ccc6oc(N)nc6c5)nc4n3)C2)CCN1 [Compound 52]
> 10 µM,> 10000 nM,< 100 nM,< 10 µM,C[C@H]1CN(C2CN(c3cnc4ccc(-c5ccc6oc(N)nc6c5)nc4n3)C2)CCN1C [Compound 21]
< 1 µM,< 100 nM,< 100 nM,> 10 µM,"Nc1nc2cc(-c3ccc4ncc(N5CCOCC5)nc4n3)ccc2o1 [Compound 2, 5-(3-morpholinopyrido[2,3-b]pyrazin-6-yl)benzo[d]oxazol-2-amine]"
> 10 µM,< 10000 nM,< 100 nM,> 10 µM,C[C@H]1COCCN1C1CN(c2cnc3ccc(-c4ccc5oc(N)nc5c4)nc3c2)C1 [Compound 68]
–,< 1000 nM,< 100 nM,< 1 µM,"CC(C)(N)C(=O)N1CCN(c2cnc3ccc(-c4ccc5oc(N)nc5c4)nc3c2)CC1 [Compound 43, 2-amino-1-(4-(6-(2-aminobenzo[d]oxazol-5-yl)-1,5-naphthyridin-3-yl)piperazin-1-yl)-2-methylpropan-1-one]"
> 10 µM,–,< 1000 nM,> 10 µM,CC1(C)CN(C2CN(c3cnc4ccc(-c5ccc6oc(N)nc6c5)nc4n3)C2)CCO1 [Compound 17]
< 1 µM,–,< 100 nM,< 1 µM,"CC(C)N1CCN(C2CN(c3cnc4ccc(-c5ccc6oc(N)nc6c5)nc4c3)C2)CC1 [Compound 72, 5-(7-(3-(4-isopropylpiperazin-1-yl)azetidin-1-yl)-1,5-naphthyridin-2-yl)benzo[d]oxazol-2-amine]"

SMILES,IC50 (PI3K β),IC50 (PI3K γ),IC50 (PI3K α),IC50 (PI3K δ)
Nc1nc2cc(-c3ccc4ncc(N5C6CCC5COC6)cc4n3)ccc2o1 [Compound 23],< 10 µM,< 100 nM,< 100 nM,> 10 µM
Nc1nc2cc(-c3ccc4ncc(N5CC(N6C7CCC6COC7)C5)nc4n3)ccc2o1 [Compound 51],> 10 µM,> 10000 nM,< 10000 nM,> 10 µM
